According to US5162373A, “Methods and improved formulations for the determination and treatment of malignant disease in patients” (priority 1989, dated 1992):

Key:
[1] = set-up: species or system human (patients with advanced colorectal carcinoma); details: human, in vivo
Text: FIG. 4. Platelet counts plotted against days of continuous i.v. DFMO infusion in patients with advanced colorectal carcinoma. […] The paired points are connected by a straight line.
There was no incidence of nausea, vomiting or diarrhea.

[2] = system: platelets; details: rat, in vivo
[3] = Toxicity of continuous i.v. DFMO infusion in rats (FIG. 3); assay type: in vivo, rat; details: 12 days; 500-2000 mg/kg/day
Text: FIG. 3. […] Bars indicate standard deviation.
In the above described rat model, a continuous infusion of DFMO was given through a central venous catheter.

[4] = system: tumor putrescine; MCA sarcoma
[5] = system: intestinal epithelium / gut mucosa; test: Trophic/protective effect on intestinal epithelium, other studies; assay type: in vivo; details: doses as high as 20 g/L
[6] = system: intestinal epithelium / gut mucosa; details: cited from earlier work

For NCCCC(N)(C(=O)O)C(F)F (stereo not shown) [DFMO, Difluoromethylornithine], the White cell count [1] was “not affected by either dose”, the decreased hearing acuity [1] was “two patients who experienced decreased hearing acuity” and the hematocrit [1] was “Significant suppression of the hematocrit”. The “nausea, vomiting or diarrhea” value [1] was “no incidence”, the platelet suppression [1] was “significant at both doses” and the “platelet suppression, 8 g vs 6 g dose” value [1] was “significantly greater platelet suppression at the 8 g dose as compared with the 6 g dose”. The “resolution of toxicities after discontinuing infusion” value [1] was “resolved spontaneously within two weeks”, the “platelet suppression, in words” value [2] was “significant decrease in platelet count as compared with the saline treatment” and the clinical toxicity [3] was “no significant clinical toxicity”. For the same molecule, the “decrease in tumor putrescine levels” value ([4]; DFMO infusion) was 90%, the “growth of MCA sarcoma” value ([4]; rat, in vivo) was “reduces the growth rate of an MCA sarcoma but does not produce tumor regression” and the peripheral platelet counts ([4]; rat, in vivo) was “without suppressing peripheral platelet counts”.
For NC(=O)CC[C@H](N)C(=O)O [glutamine, L-glutamine], the “trophic effect on intestinal epithelium” value [5] is listed as “trophic effect on intestinal epithelium, especially the ileum”, the “gut epithelium, glutamine added to TPN” value ([6]; 10-20 g/L) is listed as “restores gut epithelium” and the “transmucosal migration of bacteria into mesenteric lymph nodes” value ([6]; compared with glutamine deficient formulas) is listed as “present transmucosal migration of bacteria into mesenteric lymph nodes”. The “protection of gut mucosa” value ([6]; oral, rats receiving toxic doses of 5FU or methotrexate) was “protected the gut mucosa”.
For NCCCCN [putrescine], the “colonic DNA and protein content” value ([6]; about 50 micromole/100 gram body weight) is listed as “increases in colonic DNA and protein content”, the “DNA and RNA content and protein in ileum” value ([6]; putrescine about 1 micromole) is listed as “increased DNA and RNA content and protein” and the mucosal proliferation ([6]; putrescine: intraluminal infusion) is listed as “stimulation of mucosal proliferation”.
